In patent publication US12414960B2, “Analogues of oleuropein and oleacein and uses thereof” (Attica Sciences Ltd., priority 2020, dated 2025):

Columns and labels:
[1] = system: MCF-10A non-tumorigenic mammary epithelial cells; test: Cell Glo luminescence cell growth assay, MCF-10A normal cells; assay type: cell-based, human
Text: The CellTiter-Glo® Luminescent Cell Viability Assay (Promega Corporation; Madison, WI) is a homogeneous method of determining the number of viable cells in culture based on quantitation of the ATP present, an indicator of metabolically active cells. The homogeneous assay procedure involves adding the single reagent (CellTiter-Glo® Reagent) directly to cells cultured in serum-supplemented medium. The homogeneous “add-mix-measure” format results in cell lysis and generation of a luminescent signal proportional to the amount of ATP present. The amount of ATP is directly proportional to the number of cells present in culture.
Cancer cells (3,000 cells/well) were harvested in a 96-well plate. Then, the cancer cells were treated with GS compounds and incubated for 24 hours. The MT Cell Viability Substrate, NanoLuc® Enzyme and cell culture medium was equilibrated to 37° C. The 2× RealTime-Glo™ reagent was prepared by diluting the MT Cell Viability Substrate and NanoLuc® Enzyme in 37° C. cell culture medium to a 2× concentration for each reagent. […] The cells were kept for ˜20 minutes in the cell culture incubator and then luminescence was measured by using a plate-reading luminometer. […]
The effects of exemplary compounds on cancer cell lines and one non-tumorigenic cell line (control) were investigated using a high throughput screening assay. More specifically, the effects of the GS compounds on cell growth was evaluated by the XTT assay for cell lines HepG2, HeLa, MCF7 ER+, MDA-MB-231, and MKN-45, and by the Cell Glo luminescence assay for cell lines MIA PaCa-2, HCT-116, MCF-10A, and PANC-1. […]
The effect of GS27 on normal cell growth was evaluated using the MCF-10A cell line. […]
GS27, NDI-091143 and Nexletol (10 μM) were used to treat normal epithelial cells MCF-10A cells. […] Forty-eight hours post-treatment, the growth of MCF-10A cells was evaluated by CellTiter-Glo® Luminescent Cell Viability Assay, as discussed in Example 29.

[2] = system: MCF-7 ER+ breast cancer cells; test: XTT cell growth assay, MCF-7 ER+; assay type: cell-based, human; conditions: Homo sapiens, MCF7, 24 h, NS = not statistically significant, read-out: Effectiveness to suppress MCF7 cell growth (cell growth inhibition)
Text: (§1) The XTT assay is used to measure cellular metabolic activity as an indicator of cell viability, proliferation and cytotoxicity. This non-radioactive, colorimetric assay system was first described by Scudiero, et al. in 1988 (Paull, Kenneth D. et al., J Heterocycl Chem, 1988, 25: 911-914; Scudiero, Dominic A. et al., Cancer Res, 1988, 48: 4827-4833) and improved in subsequent years by several other investigators (Weislow, Owen S. et al., J Natl Cancer Inst, 1989, 81(8): 577-586; Roehm, N. W. et al., J Immunol Methods, 1991, 142: 257-265).
(§2) The XTT assay is based on the reduction of a yellow tetrazolium salt (sodium 3′-[1-(phenylaminocarbonyl)-3,4-tetrazolium]-bis (4-methoxy6-nitro) benzene sulfonic acid hydrate or XTT) to an orange formazan dye by metabolically active cells (FIG. 8). The formazan dye formed is soluble in aqueous solutions and is directly quantified using a scanning multiwell spectrophotometer (ELISA reader). An increase in number of living cells results in an increase in the overall activity of mitochondrial dehydrogenases in the sample. This increase directly correlates to the amount of orange formazan formed, as monitored by the absorbance. Reduced number of living cells leads to reduced metabolism of quaternary salt and therefore reduced absorption.
(§3) Cell viability was assessed using the XTT assay kit (Roche, Mannheim, Germany) as described previously (Kouka, Paraskevi et al., Oxid Med Cell Longev. 2019, Article ID 1870965). Briefly, cancer cells per well were cultured in a 96-well plate in Dulbecco's modified Eagle's medium (DMEM). Following a 24 h incubation, 5, 10 and 50 μM of the tested GS compound was diluted in a serum-free DMEM and administered for 24 h. Subsequently, 50 μL of the XTT reagent (50:1) was added to each well. After 4 h of incubation, the absorbance was monitored at 450 nm and also at 630 nm as a reference wavelength in a BioTek ELx800 microplate reader (BioTek Instruments Inc., Winooski, VT, USA). As a negative control, samples containing serum-free DMEM only were used.
MCF-7 ER+ is a human breast cancer cell line isolated in 1970 from a person. Prior to MCF-7, it was not possible for cancer researchers to obtain a mammary cell line that was capable of living longer than a few months.
(§4) The effects of exemplary compounds on cancer cell lines and one non-tumorigenic cell line (control) were investigated using a high throughput screening assay. More specifically, the effects of the GS compounds on cell growth was evaluated by the XTT assay for cell lines HepG2, HeLa, MCF7 ER+, MDA-MB-231, and MKN-45, and by the Cell Glo luminescence assay for cell lines MIA PaCa-2, HCT-116, MCF-10A, and PANC-1.

[3] = system: HeLa cervical cancer cells; test: XTT cell growth assay, HeLa; assay type: cell-based, human; conditions: Homo sapiens, HeLa, 24 h, NS = not statistically significant, read-out: Effectiveness to suppress HeLa cell growth (cell growth inhibition)
Text: as §1, §2, §3
HeLa is a human immortal cell line used in scientific research. It is the oldest and most commonly used human cell line. The line was derived from cervical cancer cells taken on Feb. 8, 1951 from Henrietta Lacks, a patient who died of cancer on Oct. 4, 1951.
as §4

[4] = system: MDA-MB-231 triple negative breast cancer cells; test: XTT cell growth assay, MDA-MB-231; assay type: cell-based, human; conditions: Homo sapiens, MDA-MB-231, 24 h, NS = not statistically significant, read-out: Effectiveness to suppress MDA-MB-231 cell growth (cell growth inhibition)
Text: as §1, §2, §3
MDA-MB-231 is a human epithelial breast cancer cell line that was established from a pleural effusion of a person with a metastatic mammary adenocarcinomal and is one of the most commonly used breast cancer cell lines in medical research laboratories.
as §4

HepG2 liver cancer cells = test: XTT cell growth assay, HepG2; assay type: cell-based, human; conditions: Homo sapiens, HepG2, 24 h, NS = not statistically significant, read-out: Effectiveness to suppress HepG2 cell growth (cell growth inhibition)
Text: as §1, §2, §3
Hep G2 (or HepG2) is a human liver cancer cell line. Hep G2 is an immortal cell line which was derived from the liver tissue of an adolescent with a well-differentiated hepatocellular carcinoma. Hep G2 cells are a suitable in vitro model system for the study of polarized human hepatocytes.
as §4

[5] = ABTS radical cation scavenging assay; assay type: biochemical; conditions: NS = not statistically significant
Text: The method of estimating antioxidant capacity, based on the ability to interact with the ABTS.+ radical cation was first performed by Miller et al. in 1993 (Miller, Nicholas et al., Clinical Science, 1993, 84: 407-412, “A novel method for measuring the antioxidant capacity and its application to monitoring the antioxidant status in premature neonates”). The mechanism of interaction of the antioxidant agents to be examined with the ABTS.+ radical is similar to that of the DPPH. radical, which can be inactivated either by the addition of an electron or by the addition of a hydrogen atom. However, unlike the DPPH. radical, which is a stable radical from the beginning, the ABTS.+ radical must be produced by the oxidation of ABTS. Thus, in order to estimate the antioxidant capacity of a substance, the formation of the ABTS.+ radical must first precede and the addition of the substance to be examined must follow. The addition of the antioxidant agent is performed after the production of the root ABTS.+ to avoid the interaction of the antioxidant agents with the oxidizing agents used for the oxidation of ABTS.
The oxidation of ABTS takes place either through chemical reactions with various reagents or through the action of enzymes such as peroxidases. The ABTS.+ radical from the moment it is formed is stable, has a green color and absorbs at 730 nm. When a substance with antioxidant activity is added to the solution, then the ABTS.+ radical is reduced by the addition of a hydrogen (or electron) atom, resulting in reduced visual absorption.
To assess the antioxidant capacity of the samples, the oxidation of ABTS was performed enzymatically through the action of horseradish peroxidase (HRP), in the presence of H2O2 (FIG. 3)
The anti-oxidant capacity of the GS compounds was evaluated by performing the ABTS assay as previously described (Kouka, Paraskevi et al., Oxid Med Cell Longev. 2019, Article ID 1870965). Briefly, in a total reaction volume of 1 mL in distilled water (dH2O), ABTS.^+ (1 mM), H2O2 (30 μM), and horseradish peroxidase (HRP) (6 μM) in 50 mM phosphate-buffered saline were added. The solution was incubated for 45 min at room temperature (RT) in the dark. Finally, 10 μL of the tested GS compound at various concentrations was added, and the absorbance was monitored on a Hitachi U-1900 radio beam spectrophotometer (serial no. 2023-029; Hitachi Ltd.) at 730 nm. In each experiment, a blank without the HRP was used, while the ABTS.^+ radical solution without the extract was used as the control. The RSC percentage of the tested extracts was calculated using the following equation: RSC (%)=[(ODcontrol−ODcompound)/ODcontrol]×100, where ODcontrol and OD sample are the optical density (OD) values of the control and the test sample, respectively.

[6] = Deoxyribose degradation assay (hydroxyl radical scavenging); assay type: biochemical; conditions: NS = not statistically significant
Experimental: The hydroxyl radical (OH.) is an extremely reactive in biological systems and has been implicated as highly damaging species in free radical pathology, capable of damaging biomolecules of the living cells. These radical combines with nucleotides in DNA and cause strand breakage leading to carcinogenesis, mutagenesis and cytotoxicity. Hydroxyl radical (OH.) scavenging capacity of an extract is directly related to its antioxidant activity.
The effect of extracts on hydroxyl radicals was assayed by using the deoxyribose method. 2-Deoxyribose is degraded on exposure to hydroxyl radicals generated by Fenton's reaction. The ability to neutralize the OH. is estimated as the rate of inhibition of the oxidation of 2-deoxyribose by the OH. (FIG. 5).
The measurement of the hydroxyl radical scavenging activity was evaluated for each of the GS compound by evaluating the pink chromogen absorption at 532 nm by spectrophotometry as described previously (Perjesi, Pal et al., Open Med Chem J., 2011, 5: 61-67

[7] = system: MKN-45 gastric cancer cells; test: XTT cell growth assay, MKN-45; assay type: cell-based, human; conditions: Homo sapiens, MKN-45, 24 h, NS = not statistically significant, read-out: Effectiveness to suppress MKN-45 cell growth (cell growth inhibition)
Text: as §1, §2, §3
MKN-45 is a human gastric adenocarcinoma, established from the poorly differentiated adenocarcinoma of the stomach (medullary type) of a person.
as §4

| ABTS Radical Cation Scavenging Assay IC50 [5] [μg extract/mL] | Deoxyribose Degradation Assay IC50 [6] [μg extract/mL] | Compound | effect on MCF-10A normal cell growth ([1]; 10 μM, forty-eight hours post-treatment) | inhibition at 10 µM ([1]; Homo sapiens, MCF-10A, 10 uM, 24 h, normal cells, safety control, NS = not statistically significant, read-out: Effectiveness to suppress MCF10A cell growth (cell growth inhibition)) [%] | inhibition at 50 µM [2] [%] | inhibition at 50 µM [3] [%] | inhibition at 50 µM [4] [%] | inhibition at 50 µM (HepG2 liver cancer cells) [%] | inhibition at 50 µM [7] [%] |
| --- | --- | --- | --- | --- | --- | --- | --- | --- | --- |
| – | – | CC(C)(CCCCCC(O)CCCCCC(C)(C)C(=O)O)C(=O)O [Nexletol, reference compound] | inhibitory effect | – | – | – | – | – | – |
| – | – | C/C=C(/C=O)[C@@H](CC=O)CC(=O)OC [GS16, (3S,4E)-4-Formyl-3-(2-oxoethyl)hex-4-enoic acid methyl ester] | – | 10.1 | 26.6 | 72.6 | 35 | – | – |
| 50.2 | 20 | C/C=C(/C=O)[C@@H](CC=O)CC(=O)OCCc1cccc(O)c1 [GS20, (3S,4E)-4-formyl-3-(2-oxoethyl)-4-hexenoic acid 3-hydroxyphenethyl ester] | – | – | 36.1 | 56.4 | 56.4 | 50 | 84.1 |
